Test results reported in US12247004B2, “2-amino-N-(amino-oxo-aryl-lambda6-sulfanylidene)acetamide compounds and their therapeutic use” (Oxford Drug Design Limited, priority 2019, dated 2025).
Converted amounts (≈) assume the structure as drawn. Like-named read-outs stand apart in the source and are kept apart here.

Tests used:
[1] = target: Isoleucyl-tRNA synthetase (IleRS) (Escherichia coli (strain K12), UniProt P00956); assay: Isoleucyl-tRNA synthetase enzyme inhibition (AMP-Glo; single point % inhibition at 100 μM and IC50); format: biochemical
Isoleucyl-tRNA synthetase (IleRS), sequence (P00956 whole entry, looked up): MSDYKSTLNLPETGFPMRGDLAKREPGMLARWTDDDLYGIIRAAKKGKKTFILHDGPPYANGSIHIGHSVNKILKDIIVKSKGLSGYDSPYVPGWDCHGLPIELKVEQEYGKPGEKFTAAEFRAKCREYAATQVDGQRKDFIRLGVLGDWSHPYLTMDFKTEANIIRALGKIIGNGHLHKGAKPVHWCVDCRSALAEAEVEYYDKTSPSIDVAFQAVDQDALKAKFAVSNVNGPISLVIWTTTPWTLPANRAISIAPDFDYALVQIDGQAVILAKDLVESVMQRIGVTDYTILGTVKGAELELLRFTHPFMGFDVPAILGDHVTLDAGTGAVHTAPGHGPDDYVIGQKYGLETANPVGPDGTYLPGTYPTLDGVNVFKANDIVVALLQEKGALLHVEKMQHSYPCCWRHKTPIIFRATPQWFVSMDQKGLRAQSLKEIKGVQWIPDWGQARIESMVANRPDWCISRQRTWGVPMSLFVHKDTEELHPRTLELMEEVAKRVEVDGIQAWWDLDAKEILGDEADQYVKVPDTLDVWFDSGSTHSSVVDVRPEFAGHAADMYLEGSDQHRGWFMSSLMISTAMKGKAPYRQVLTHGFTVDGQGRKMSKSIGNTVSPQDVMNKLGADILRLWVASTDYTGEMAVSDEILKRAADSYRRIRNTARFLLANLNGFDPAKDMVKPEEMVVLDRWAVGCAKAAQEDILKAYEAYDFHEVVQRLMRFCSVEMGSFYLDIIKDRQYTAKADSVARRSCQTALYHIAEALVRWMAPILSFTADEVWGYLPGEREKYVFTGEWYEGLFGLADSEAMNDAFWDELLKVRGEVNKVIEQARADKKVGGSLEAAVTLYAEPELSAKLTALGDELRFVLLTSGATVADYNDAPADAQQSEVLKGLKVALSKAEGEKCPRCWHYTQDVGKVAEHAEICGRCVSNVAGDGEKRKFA
Excerpt: Study 1—Enzyme Inhibition
The aminoacylation reaction catalyzed by aminoacyl-tRNA synthetases (aaRS) takes place in two steps. In the first step, aaRS activates its cognate amino acid with ATP; and in the second step the activated amino acid is loaded to its corresponding tRNA. This reaction can be summarized as follows: aaRS+aa+ATP=aaRS-aa-AMP+PPi aaRS-aa-AMP+tRNA=aa-tRNA+AMP+aaRS […]
wherein: aaRS, aminoacyl-tRNA synthetase; aa, amino acid; aaRS-aa-AMP, enzyme-bound to aminoacyl-adenylate; AMP, adenosine monophosphate; aa-tRNA, aminoacyl-tRNA, PPi, inorganic pyrophosphate.
Isoleucyl-tRNA Synthetase a. Single Point Percentage Inhibition
The activity of the pathogenic aaRSs was monitored by measuring AMP production using the commercial kit AMP-Glo (Promega, Madison, USA).
Ligand stock solutions were prepared in 100% DMSO at 10 mM concentration. An assay buffer consisting of 100 mM Tris HCl pH 7.6, 40 mM MgCl, 20 mM KCl and 150 mM NaCl was prepared in dH2O. An enzyme solution containing 51.77 μM IleRS was prepared in assay buffer to provide 30 nM final assay concentration and 75 nM reservoir concentration for a 1:2.5 dilution in the assay. A substrate solution was also prepared in assay buffer with 50 mM L-isoleucine, 10 mM ATP and 100 mg/mL tRNA. A final assay concentration of 500 μM L-isoleucine, 5 μM ATP and 1 mg/mL tRNA and reservoir concentration of 833.33 μM L-isoleucine, 8.33 μM ATP and 1.67 mg/mL tRNA was used for a 1:1.66 dilution in assay.
Enzyme percentage inhibition values were recorded in triplicate at a single point concentration of 100 μM.
Using the same enzymatic assay in a 384-well plate format, ten point concentration response curves were generated for each compound using a top concentration of 100 μM. The known inhibitor, IleAMS was used as a positive control for the IleRS assay. 100% DMSO was used as a negative control. The IC50 was calculated based on non-linear regression analysis.

[2] = Human cell viability / cytotoxicity (CellTiter-Glo, 24 hours); format: cell-based; conditions: human, HepG2 cells (ATCC HB-8065); HepG2 ATCC HB-8065, 24 hours; read-out: Cytotoxicity in HepG2 ATCC HB-8065 Cell Line, IC50
Description: Study 3—Human Cell Viability
Compounds were assessed for potential non-specific cytotoxic effects against a human hepatic cell line (HepG2 ATCC HB-8065). 96-well plates were seeded with HepG2 cells in concentration of 15,000 cells per well in 100 μL of MEM growth media completed with 1% NEAA and 1% sodium pyruvate. Border wells were filled with 100 μL of sterile PBS. Two days upon cells incubation, the compounds were added. Compound dilutions were prepared in 96-well V-bottom plate in pure DMSO. Growth media from 5 plates were aspirated and replaced with 98.7 μL of fresh growth media. 1.28 μL of compounds prepared in V-bottom plates were transferred with multichannel pipette into test plates (78.1× dilution). Final DMSO concentration was 1.28% per well. In control wells, 1.28 μL of DMSO was added in 98.7 μL of media. Compounds were tested in duplicates. Cells were incubated with compounds for 24 hours when cell viability was assessed by measuring ATP levels. ATP levels were measured by adding 50 μL of CellTiter-Glo reagent to each well and after 5 minutes of incubation luminescence was measured with SpectraMax i3. The potential effect of tested compounds on cell viability was determined by comparing the signal obtained in presence of different concentrations of the compounds with those obtained in the presence of DMSO only. The potential effects were then calculated and presented as IC50 values (μg/mL).

[3] = test system: bacteria (ATCC reference strains); assay: Antibacterial activity, MIC by broth micro-dilution (CLSI)
[4] = E. coli IleRS, read-out: Enzyme Inhibition - IC50, E. coli IleRS
[5] = Acinetobacter baumannii, read-out: Antibacterial Activity (MIC), E = A. baumannii B1931
[6] = Enterobacter cloacae, read-out: Antibacterial Activity (MIC), B = Enterobacter cloacae B1966
[7] = Escherichia coli, ATCC25922, read-out: Antibacterial Activity (MIC), A = E. coli ATCC 25922
[8] = Haemophilus influenzae, ATCC49247, read-out: Antibacterial Activity (MIC), F = H. influenzae ATCC 49247
[9] = Klebsiella pneumoniae, ATCC700603, read-out: Antibacterial Activity (MIC), C = K. pneumoniae ATCC 700603
[10] = Pseudomonas aeruginosa, ATCC27853, read-out: Antibacterial Activity (MIC), D = P. aeruginosa ATCC 27853

CC[C@H](C)[C@H](N)C(=O)N=[S@](N)(=O)c1cccs1 (single isomer, unassigned) [ANASIA-028-1]
IC50 [1, 4]: 46.5 µM

CC[C@H](C)[C@H](N)C(=O)N=[S@](N)(=O)c1ccc(Cl)s1 [ANASIA-029-1]
IC50 [1, 4]: 67.4 µM

CC[C@H](C)[C@H](N)C(=O)N=[S@@](N)(=O)c1ccc(Cl)s1.Cl [ANASIA-029-2]
IC50 [1, 4]: 4.59 µM
IC50 at 24 h [2]: > 64 µg/mL
MIC [3, 5]: > 64 µg/mL
MIC [3, 6]: > 64 µg/mL
MIC [3, 7]: 64 µg/mL
MIC [3, 8]: 16 µg/mL
MIC [3, 9]: > 64 µg/mL
MIC [3, 10]: > 64 µg/mL

CC[C@H](C)[C@H](N)C(=O)N=[S@@](N)(=O)c1ccc(C)s1.Cl [ANASIA-031-2]
IC50 [1, 4]: 2.65 µM
IC50 at 24 h [2]: > 64 µg/mL
MIC [3, 5]: > 64 µg/mL
MIC [3, 6]: 64 µg/mL
MIC [3, 7]: 64 µg/mL
MIC [3, 8]: 16 µg/mL
MIC [3, 9]: > 64 µg/mL
MIC [3, 10]: > 64 µg/mL

CC[C@H](C)[C@H](N)C(=O)N=S(N)(=O)c1ccc(C)s1 (stereo partly drawn) [ANASIA-031]
IC50 [1, 4]: 6.7 µM
IC50 at 24 h [2]: > 64 µg/mL
MIC [3, 5]: > 64 µg/mL
MIC [3, 6]: > 64 µg/mL
MIC [3, 7]: > 64 µg/mL
MIC [3, 8]: 64 µg/mL (≈ 221 µM)
MIC [3, 9]: > 64 µg/mL
MIC [3, 10]: > 64 µg/mL

CC[C@H](C)[C@H](N)C(=O)N=[S@](N)(=O)c1cccc(-c2ccccc2)c1 [ANASIA-032-1]
IC50 [1, 4]: 50.8 µM

CC[C@H](C)[C@H](N)C(=O)N=[S@](N)(=O)c1cccc(Cl)c1 [ANASIA-033-1]
IC50 [1, 4]: 67.6 µM

CC[C@H](C)[C@H](N)C(=O)N=[S@](N)(=O)c1ccc(C)cc1.Cl [ANASIA-034-1]
IC50 [1]: 14.7 µM
IC50 at 24 h [2]: > 64 µg/mL
MIC [3, 5]: > 64 µg/mL
MIC [3, 6]: > 64 µg/mL
MIC [3, 7]: > 64 µg/mL
MIC [3, 8]: 64 µg/mL
MIC [3, 9]: > 64 µg/mL
MIC [3, 10]: > 64 µg/mL

CC[C@H](C)[C@H](N)C(=O)N=[S@](N)(=O)c1ccc(Cl)cc1 [ANASIA-035-1]
IC50 [1]: 18.3 µM
IC50 at 24 h [2]: > 64 µg/mL

CC[C@H](C)[C@H](N)C(=O)N=[S@](N)(=O)c1ccc(Cl)c(Cl)c1 [ANASIA-036-1]
IC50 [1]: 7.86 µM
IC50 at 24 h [2]: > 64 µg/mL

CC[C@H](C)[C@H](N)C(=O)N=[S@@](N)(=O)c1ccc(Cl)c(Cl)c1 [ANASIA-036-2]
IC50 [1, 4]: 30.6 µM

CC[C@H](C)[C@H](N)C(=O)N=[S@](N)(=O)c1cccc(Oc2ccc(Cl)cc2)c1 [ANASIA-052-1]
IC50 [1]: 37.7 µM
IC50 at 24 h [2]: > 64 µg/mL

CC[C@H](C)[C@H](N)C(=O)N=[S@@](N)(=O)c1cccc(Oc2ccc(Cl)cc2)c1 [ANASIA-052-2]
IC50 [1, 4]: 40.1 µM

CC[C@H](C)[C@H](N)C(=O)N=[S@@](N)(=O)c1ccc2c(c1)CCO2 [ANASIA-053-1]
IC50 [1, 4]: 20.2 µM

CC[C@H](C)[C@H](N)C(=O)N=[S@](N)(=O)c1ccc2cccnc2c1 [ANASIA-054-1]
IC50 [1, 4]: 83.7 µM

CC[C@H](C)[C@H](N)C(=O)N=[S@@](N)(=O)c1ccc2cccnc2c1 [ANASIA-054-2]
IC50 [1, 4]: 19.9 µM

CC[C@H](C)[C@H](N)C(=O)N=[S@](N)(=O)c1ccc(OC)cc1 [ANASIA-055-1]
IC50 [1, 4]: 35.1 µM

CC[C@H](C)[C@H](N)C(=O)N=[S@](N)(=O)c1cccc(C(C)(C)C)c1 [ANASIA-056-1]
IC50 [1, 4]: 84 µM

CC[C@H](C)[C@H](N)C(=O)N=[S@](N)(=O)c1csc2ccccc12 [ANASIA-057-1]
IC50 [1, 4]: 27.5 µM

CC[C@H](C)[C@H](N)C(=O)N=S(N)(=O)c1nc(Cl)cs1 (stereo partly drawn) [ANASIA-058]
IC50 [1, 4]: 58.6 µM
